Earlier results, collected in patent US8454566B2, “Methods and compositions for the inhibition of biofilms on medical devices” (Medtronic MiniMed, Inc., priority 2003, dated 2013).

Target: avidin (Gallus gallus, UniProt P02701)
Conditions: avidin tetramer binds 4 biotin molecules in solution, noncovalent interaction

Chain of avidin (P02701 25-152): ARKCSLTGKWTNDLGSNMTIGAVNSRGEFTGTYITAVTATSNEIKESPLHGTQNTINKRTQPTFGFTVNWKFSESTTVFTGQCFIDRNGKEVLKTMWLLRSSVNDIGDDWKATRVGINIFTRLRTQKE

In the case of `O=C(O)CCCC[C@@H]1SC[C@@H]2NC(=O)N[C@@H]21` [biotin], the binding constant is given as “about 10^15 M^−1”.
